Measurements from US10758468B2, “Solubilizer for cosmetic preparations” (Symrise AG, priority 2010, dated 2020).
Blank lines part the entries; values can stand above or below the compound they belong to.

Experiment: Assessment of turbidity (transparency) of compositions at production and after 3 months storage
Settings: water to 100; for Assessment of turbidity: Storage at 5° C. / Assessment of turbidity: Storage at 40° C.: after 3 months
[1] = 0.40 wt. % menthyl lactate, 2.00 Solubilizer U.53787M, 5.00 glycerol
[2] = 0.40 wt. % menthyl lactate, 2.00 Solubilizer U.53787M, 5.00 pentane-1,2-diol
[3] = 0.50 wt. % menthyl lactate, 2.00 Solubilizer B, 5.00 glycerol
[4] = 0.10 wt. % bisabolol, 2.00 Solubilizer U.53787M, 0.50 pentane-1,2-diol
[5] = 0.10 wt. % bisabolol, 2.00 Solubilizer U.53787M, 1.00 1,2-propylene glycol
[6] = 0.10 wt. % bisabolol, 2.00 Solubilizer U.53787M, 2.50 pentane-1,2-diol
[7] = 0.10 wt. % bisabolol, 2.00 Solubilizer U.53787M, 3.00 1,2-propylene glycol
[8] = 0.10 wt. % bisabolol, 2.00 Solubilizer U.53787M, 4.00 glycerol
[9] = 0.20 wt. % bisabolol, 2.00 Solubilizer A, 5.00 glycerol

Method: The transparency (clarity) of the compositions was determined after 3 months at the constant storage temperature stated in each case.

Assessment of turbidity: Production at 25° [1]: clear
Assessment of turbidity: Production at 25° [2]: clear
Assessment of turbidity: Production at 25° [3]: clear
Assessment of turbidity: Storage at 5° C. [1]: clear
Assessment of turbidity: Storage at 40° C. [1]: clear
Assessment of turbidity: Storage at 5° C. [2]: clear
Assessment of turbidity: Storage at 40° C. [2]: clear
Assessment of turbidity: Storage at 5° C. [3]: clear
Assessment of turbidity: Storage at 40° C. [3]: clear
SMILES: CC1CCC(C(C)C)C(OC(=O)C(C)O)C1 (stereo not shown) [Frescolat ® ML, menthyl lactate]

Amount of organic substance incorporated with the composition remaining clear and stable (framework formulation: 2.00 wt. % Solubilizer U.53787M, 5.00 glycerol, production at 25°, storage 3 months at 5° C. and 40° C.): 0.10 wt. %
SMILES: CC(C)(C)C(=O)C(Oc1ccc(Cl)cc1)n1ccnc1 (stereo not shown) [Crinipan® AD, climbazole]

Assessment of turbidity: Production at 25° [4]: clear
Assessment of turbidity: Production at 25° [5]: clear
Assessment of turbidity: Production at 25° [6]: clear
Assessment of turbidity: Production at 25° [7]: clear
Assessment of turbidity: Production at 25° [8]: clear
Assessment of turbidity: Production at 25° [9]: clear
Assessment of turbidity: Storage at 5° C. [4]: clear
Assessment of turbidity: Storage at 40° C. [4]: clear
Assessment of turbidity: Storage at 5° C. [5]: clear
Assessment of turbidity: Storage at 40° C. [5]: clear
Assessment of turbidity: Storage at 5° C. [6]: clear
Assessment of turbidity: Storage at 40° C. [6]: clear
Assessment of turbidity: Storage at 5° C. [7]: clear
Assessment of turbidity: Storage at 40° C. [7]: clear
Assessment of turbidity: Storage at 5° C. [8]: clear
Assessment of turbidity: Storage at 40° C. [8]: clear
Assessment of turbidity: Storage at 5° C. [9]: clear
Assessment of turbidity: Storage at 40° C. [9]: clear
SMILES: CC(C)=CCC[C@](C)(O)C1CC=C(C)CC1 (stereo partly shown) [Bisabolol]
